Patent US10130830B2, “Preservative systems comprising cationic surfactants” (Laboratorios Miret, S.A., priority 2005, dated 2018)
Several values for one entry are separate records, joined by “and”; a condition that tells them apart may be missing. Equal values may be shown once.

Columns and labels:
[1] = tested on: aerobic total count; experiment: Preservative action in cooked chicken breast, aerobic total count; type: cell-based; details: for counts (aerobic total count): for 5 weeks
Method: (2) Determination of Preservative Action in Chicken Breast. Process of Preparation • 1. Fresh chicken breast was diced to pieces • 2. Brine (8.70% sodium chloride and 4.35% tripolyphosphate in water) was added to the fresh chicken in an amount of 11.5 g brine per 88.5 g meat in the control preparation and 11.5 g brine and 88.4 g meat in the preparations treated with preservative. • 3. Brine and meat were mixed during 15 minutes, in the preparations treated with preservative the preservative was added after 14 minutes in an amount of 0.2 g/kg. • 4. Vacuum refrigerate tumbling was made during 30 minutes. • 5. Samples were vacuum-packed in sterile bags and they were cooked at 85° C. for 30 minutes. • 6. The cooked chicken was refrigerated at 4° C. • 7. The cooked chicken was diced in irregular shapes. • 8. Then, the nuggets were stored at 10° C. in sterile vacuum-packed bags. Analysis […] Dilutions were made in buffered peptone water. Tryptone Soya Agar was harvested with each dilution and incubated at 35° C. for 48 hours. The mean value in log cfu/g of three samples per treatment and day of analysis was calculated.

[2] = tested on: Aerobes; experiment: Preservative action in cosmetic products (Antimicrobial Effectiveness Testing USP 24th Edition), aerobes; type: cell-based
Source text: (§1) (1) Determination of Preservative Action in Cosmetic Products. […] This assay consists of the contamination of the protecting formulations with an inoculum mixture of 10^8 cfu/ml concentration, for each of the micro-organisms, and the determination of the number of viable cells in time. This inoculum mixture is composed of the following microorganisms: [table] The cosmetic composition to be analysed is divided into sterile containers with 50 g of product for each flask. Each container is inoculated with 0.5 ml of inoculum (10^8 cfu/ml). The target concentration is 10^6 cfu/ml, approximately. All the containers are kept at a temperature between 20-25° C. and are protected from light. The level of the microbial contamination is checked at 0 hours, 7 days, 14 days and 28 days. The number of colonies is evaluated by dilution in buffer peptone with the appropriate neutraliser agent of the preservative. The culture media used for counting the microorganisms are: […] (2) Determination of Preservative Action in Chicken Breast. Process of Preparation • 1. Fresh chicken breast was diced to pieces • 2. Brine (8.70% sodium chloride and 4.35% tripolyphosphate in water) was added to the fresh chicken in an amount of 11.5 g brine per 88.5 g meat in the control preparation and 11.5 g brine and 88.4 g meat in the preparations treated with preservative. • 3. Brine and meat were mixed during 15 minutes, in the preparations treated with preservative the preservative was added after 14 minutes in an amount of 0.2 g/kg. • 4. Vacuum refrigerate tumbling was made during 30 minutes. • 5. Samples were vacuum-packed in sterile bags and they were cooked at 85° C. for 30 minutes. • 6. The cooked chicken was refrigerated at 4° C. • 7. The cooked chicken was diced in irregular shapes. • 8. Then, the nuggets were stored at 10° C. in sterile vacuum-packed bags. Analysis

[3] = tested on: Yeast; experiment: Preservative action in cosmetic products (Antimicrobial Effectiveness Testing USP 24th Edition), yeast; type: cell-based, Candida albicans
Source text: as §1

[4] = Example 10, oil in water emulsion with non-ionic surfactant, 0.2 g/kg, 0 days
[5] = Example 10, oil in water emulsion with non-ionic surfactant, 0.2 g/kg, 7 days
[6] = Example 10, oil in water emulsion with non-ionic surfactant, 0.2 g/kg, 14 days
[7] = Example 12, bath gel, LAE 0.2 g/kg, 0 days
[8] = Example 12, bath gel, LAE 0.2 g/kg, 7 days
[9] = Example 12, bath gel, LAE 0.2 g/kg, 14 days
[10] = Example 15, bath gel, LAE 0.2 g/kg, 0 days
[11] = Example 15, bath gel, LAE 0.2 g/kg, 7 days
[12] = Example 15, bath gel, LAE 0.2 g/kg, 14 days
[13] = Example 17, oil in water emulsion with an ionic emulsifier, 0.20 g of LAE/kg, 0 days
[14] = Example 17, oil in water emulsion with an ionic emulsifier, 0.20 g of LAE/kg, 7 days
[15] = Example 17, oil in water emulsion with an ionic emulsifier, 0.20 g of LAE/kg, 14 days
[16] = Example 19, bath gel, 0.2 g of LAE/kg, 0 days
[17] = Example 19, bath gel, 0.2 g of LAE/kg, 7 days
[18] = Example 19, bath gel, 0.2 g of LAE/kg, 14 days

`CCCCCCCCCCCC(=O)N[C@@H](CCCN=C(N)N)C(=O)OCC.Cl` [LAE, ethyl ester of the lauramide of the arginine monohydrochloride] was tested, and the “aerobic total count, mean” value ([1]; Example 9, cooked chicken, 0.2 g/kg, day 0, mean of triplicate) was 2.0 log cfu/g, the aerobic total count ([1]; Example 9, cooked chicken, 0.2 g/kg, day 0, samples 1-3) was 2.0 log cfu/g and the “aerobic total count, mean” value ([1]; Example 9, cooked chicken, 0.2 g/kg, day 7, mean of triplicate) was 2.0 log cfu/g. For the same compound, the aerobic total count ([1]; Example 9, cooked chicken, 0.2 g/kg, day 7, samples 1-3) was 2.0 log cfu/g, the “aerobic total count, mean” value ([1]; Example 9, cooked chicken, 0.2 g/kg, day 14, mean of triplicate) was 2.3 log cfu/g and the aerobic total count ([1]; Example 9, cooked chicken, 0.2 g/kg, day 14, samples 1-3, monohydrochloride) was 2.0 log cfu/g and 2.5 log cfu/g and 2.3 log cfu/g. For the same compound, the “aerobic total count, mean” value ([1]; Example 9, cooked chicken, 0.2 g/kg, day 21, mean of triplicate) was 2.8 log cfu/g, the aerobic total count ([1]; Example 9, cooked chicken, 0.2 g/kg, day 21, samples 1-3, monohydrochloride) was 3.0 log cfu/g and 2.8 log cfu/g and 2.6 log cfu/g and the “aerobic total count, mean” value ([1]; Example 9, cooked chicken, 0.2 g/kg, day 28, mean of triplicate) was 3.3 log cfu/g. For the same compound, the aerobic total count ([1]; Example 9, cooked chicken, 0.2 g/kg, day 28, samples 1-3) was 3.1 log cfu/g, the aerobic total count ([1]; Example 9, cooked chicken, 0.2 g/kg, day 28, samples 1-3, monohydrochloride) was 3.2 log cfu/g and 3.5 log cfu/g and the “aerobic total count, mean” value ([1]; Example 9, cooked chicken, 0.2 g/kg, day 35, mean of triplicate) was 3.6 log cfu/g. For the same compound, the aerobic total count ([1]; Example 9, cooked chicken, 0.2 g/kg, day 35, samples 1-3) was 3.6 log cfu/g, the aerobic total count ([1]; Example 9, cooked chicken, 0.2 g/kg, day 35, samples 1-3, monohydrochloride) was 3.8 log cfu/g and 3.3 log cfu/g and the “aerobic total count, mean” value ([1]; Example 9, cooked chicken, 0.2 g/kg, day 42, mean of triplicate) was 4.1 log cfu/g. The aerobic total count ([1]; Example 9, cooked chicken, 0.2 g/kg, day 42, samples 1-3, monohydrochloride) was 4.0 log cfu/g and 4.3 log cfu/g and 4.1 log cfu/g, the “aerobic total count, mean” value ([1]; Example 9, cooked chicken, 0.2 g/kg, day 49, mean of triplicate) was 5.0 log cfu/g and the aerobic total count ([1]; Example 9, cooked chicken, 0.2 g/kg, day 49, samples 1-3, monohydrochloride) was 5.1 log cfu/g and 4.7 log cfu/g and 5.2 log cfu/g. The “aerobic total count, mean” value ([1]; Example 9, cooked chicken, 0.2 g/kg, day 56 (8 weeks), mean of triplicate) was 5.4 log cfu/g, the aerobic total count ([1]; Example 9, cooked chicken, 0.2 g/kg, day 56, samples 1-3, monohydrochloride) was 5.3 log cfu/g and 5.2 log cfu/g and 5.5 log cfu/g and the “counts (aerobic total count)” value ([1]; Example 9, cooked chicken, 0.2 g/kg) was “below 4.0 log cfu/g”. The “aerobic total count, mean” value ([1]; Example 14, cooked chicken, LAE 0.2 g/kg, day 0, mean of triplicate) was 2.0 log cfu/g, the “aerobic total count, mean” value ([1]; Example 14, cooked chicken, LAE 0.2 g/kg, day 7, mean of triplicate) was 2.0 log cfu/g and the aerobic total count ([1]; Example 14, cooked chicken, LAE 0.2 g/kg, day 7, samples 1-3) was 2.0 log cfu/g. The “aerobic total count, mean” value ([1]; Example 14, cooked chicken, LAE 0.2 g/kg, day 14, mean of triplicate) was 2.3 log cfu/g, the aerobic total count ([1]; Example 14, cooked chicken, LAE 0.2 g/kg, day 14, samples 1-3, monohydrochloride) was 2.2 log cfu/g and 2.6 log cfu/g and the “aerobic total count, mean” value ([1]; Example 14, cooked chicken, LAE 0.2 g/kg, day 21, mean of triplicate) was 2.9 log cfu/g. The aerobic total count ([1]; Example 14, cooked chicken, LAE 0.2 g/kg, day 21, samples 1-3, monohydrochloride) was 3.0 log cfu/g and 2.8 log cfu/g, the “aerobic total count, mean” value ([1]; Example 14, cooked chicken, LAE 0.2 g/kg, day 28, mean of triplicate) was 3.4 log cfu/g and the aerobic total count ([1]; Example 14, cooked chicken, LAE 0.2 g/kg, day 28, samples 1-3) was 3.4 log cfu/g. The aerobic total count ([1]; Example 14, cooked chicken, LAE 0.2 g/kg, day 28, samples 1-3, monohydrochloride) was 3.2 log cfu/g and 3.5 log cfu/g, the “aerobic total count, mean” value ([1]; Example 14, cooked chicken, LAE 0.2 g/kg, day 35, mean of triplicate) was 3.8 log cfu/g and the aerobic total count ([1]; Example 14, cooked chicken, LAE 0.2 g/kg, day 35, samples 1-3, monohydrochloride) was 3.6 log cfu/g and 3.8 log cfu/g and 3.9 log cfu/g. The “aerobic total count, mean” value ([1]; Example 14, cooked chicken, LAE 0.2 g/kg, day 42, mean of triplicate) was 4.0 log cfu/g, the aerobic total count ([1]; Example 14, cooked chicken, LAE 0.2 g/kg, day 42, samples 1-3, monohydrochloride) was 4.0 log cfu/g and 4.1 log cfu/g and the “aerobic total count, mean” value ([1]; Example 14, cooked chicken, LAE 0.2 g/kg, day 49, mean of triplicate) was 5.1 log cfu/g. The aerobic total count ([1]; Example 14, cooked chicken, LAE 0.2 g/kg, day 49, samples 1-3, monohydrochloride) was 5.3 log cfu/g and 4.9 log cfu/g and 5.0 log cfu/g, the “aerobic total count, mean” value ([1]; Example 14, cooked chicken, LAE 0.2 g/kg, day 56 (8 weeks), mean of triplicate) was 5.6 log cfu/g and the aerobic total count ([1]; Example 14, cooked chicken, LAE 0.2 g/kg, day 56, samples 1-3, monohydrochloride) was 5.2 log cfu/g. For the same compound, the “counts (aerobic total count)” value ([1]; Example 14, cooked chicken, LAE 0.2 g/kg) was “below 4.0 log cfu/g”, the “aerobic total count, mean” value ([1]; Example 16, cooked chicken, 0.20 g of LAE/kg, day 0, mean of triplicate) was 2.0 log cfu/g and the “aerobic total count, mean” value ([1]; Example 16, cooked chicken, 0.20 g of LAE/kg, day 7, mean of triplicate) was 2.0 log cfu/g. The “aerobic total count, mean” value ([1]; Example 16, cooked chicken, 0.20 g of LAE/kg, day 14, mean of triplicate) was 2.2 log cfu/g, the “aerobic total count, mean” value ([1]; Example 16, cooked chicken, 0.20 g of LAE/kg, day 21, mean of triplicate) was 2.8 log cfu/g and the “aerobic total count, mean” value ([1]; Example 16, cooked chicken, 0.20 g of LAE/kg, day 28, mean of triplicate) was 3.2 log cfu/g. The “aerobic total count, mean” value ([1]; Example 16, cooked chicken, 0.20 g of LAE/kg, day 35, mean of triplicate) was 3.6 log cfu/g, the “aerobic total count, mean” value ([1]; Example 16, cooked chicken, 0.20 g of LAE/kg, day 42, mean of triplicate) was 4.3 log cfu/g and the “aerobic total count, mean” value ([1]; Example 16, cooked chicken, 0.20 g of LAE/kg, day 49, mean of triplicate) was 4.9 log cfu/g. For the same compound, the “aerobic total count, mean” value ([1]; Example 16, cooked chicken, 0.20 g of LAE/kg, day 56 (8 weeks), mean of triplicate) was 5.5 log cfu/g, the “counts (aerobic total count)” value ([1]; Example 16, cooked chicken, LAE 0.2 g/kg) was “below 4.0 log cfu/g” and the “aerobic total count, mean” value ([1]; Example 18, cooked chicken, 0.2 g of LAE/kg, day 0, mean of triplicate) was 2.0 log cfu/g. The “aerobic total count, mean” value ([1]; Example 18, cooked chicken, 0.2 g of LAE/kg, day 7, mean of triplicate) was 2.0 log cfu/g, the “aerobic total count, mean” value ([1]; Example 18, cooked chicken, 0.2 g of LAE/kg, day 14, mean of triplicate) was 2.4 log cfu/g and the “aerobic total count, mean” value ([1]; Example 18, cooked chicken, 0.2 g of LAE/kg, day 21, mean of triplicate) was 2.9 log cfu/g. The “aerobic total count, mean” value ([1]; Example 18, cooked chicken, 0.2 g of LAE/kg, day 28, mean of triplicate) was 3.4 log cfu/g, the “aerobic total count, mean” value ([1]; Example 18, cooked chicken, 0.2 g of LAE/kg, day 35, mean of triplicate) was 3.7 log cfu/g and the “aerobic total count, mean” value ([1]; Example 18, cooked chicken, 0.2 g of LAE/kg, day 42, mean of triplicate) was 4.1 log cfu/g. For the same compound, the “aerobic total count, mean” value ([1]; Example 18, cooked chicken, 0.2 g of LAE/kg, day 49, mean of triplicate) was 5.2 log cfu/g, the “aerobic total count, mean” value ([1]; Example 18, cooked chicken, 0.2 g of LAE/kg, day 56 (8 weeks), mean of triplicate) was 5.7 log cfu/g and the “counts (aerobic total count)” value ([1]; Example 18, cooked chicken, LAE 0.2 g/kg) was “below 4.0 log cfu/g”. For the same compound, the Aerobes count [2, 4] was 6.2 log cfu/g, the Aerobes count [2, 5] was 3.5 log cfu/g and the Aerobes count [2, 6] was 3.0 log cfu/g. It also gave an Aerobes count [2, 7] of 6.2 log cfu/g, an Aerobes count [2, 8] of 4.2 log cfu/g and an Aerobes count [2, 9] of 3.0 log cfu/g. For the same compound, the Aerobes count [2, 10] was 6.1 log cfu/g, the Aerobes count [2, 11] was 3.0 log cfu/g and the Aerobes count [2, 12] was 2.6 log cfu/g. It also gave an Aerobes count [2, 13] of 6.1 log cfu/g, an Aerobes count [2, 14] of 4.0 log cfu/g and an Aerobes count [2, 15] of 2.9 log cfu/g. It also gave an Aerobes count [2, 16] of 6.0 log cfu/g, an Aerobes count [2, 17] of 3.3 log cfu/g and an Aerobes count [2, 18] of 2.9 log cfu/g. It also gave a Yeast count [3, 4] of 5.6 log cfu/g, a Yeast count [3, 5] of 3.4 log cfu/g and a Yeast count [3, 6] of 2.6 log cfu/g. The Yeast count [3, 7] was 4.3 log cfu/g, the Yeast count [3, 8] was 2.8 log cfu/g and the Yeast count [3, 9] was under 2.0 log cfu/g. For the same compound, the Yeast count [3, 10] was 4.3 log cfu/g, the Yeast count [3, 11] was 3.3 log cfu/g and the Yeast count [3, 12] was 2.6 log cfu/g. It also gave a Yeast count [3, 13] of 5.3 log cfu/g, a Yeast count [3, 14] of 3.8 log cfu/g and a Yeast count [3, 15] of 2.5 log cfu/g. It also gave a Yeast count [3, 16] of 4.5 log cfu/g, a Yeast count [3, 17] of 3.5 log cfu/g and a Yeast count [3, 18] of 2.3 log cfu/g.
